Data from patent US8076489B2, “5-hydroxy-benzothiazole derivatives having beta-2-adrenoreceptor agonist activity” (Novartis AG, priority 2004, dated 2011).
Read-outs that look alike come from different tables or passages of the source.

Tests used:
[1] = test system: guinea pig tracheal strip; assay: guinea-pig tracheal strip in vitro assay (duration of action); type: cell-based
Excerpt: (§1) Compounds of formulae IX are known or may be prepared using procedures that are known or are analogous to those hereinafter described in the Examples. Compounds of formula I in free, salt or solvate form are useful as pharmaceuticals. Accordingly the invention also provides a compound of formula I in free, salt or solvate form for use as a pharmaceutical. The compounds of formula I in free, salt or solvate form, hereinafter referred to alternatively as “agents of the invention”, have good β2-adreno-receptor agonist activity. The β2 agonist activity, onset of action and duration of action of the agents of the invention may be tested using the guinea pig tracheal strip in vitro assay according to the procedure of R. A. Coleman and A. T. Nials, J. Pharmacol. Methods 1989, 21, 71. The binding potency and selectivity for the β2-adrenoreceptor relative to the β1-adrenoreceptor can be measured by a classical filtration binding assay according to the procedure of Current Protocols in Pharmacology (S. J. Enna (editor-in-chief) et al, John Wiley & Son, Inc, 1998), or by cAMP determination in cells expressing β2- or β1-adreno-ceptor, according to the procedure of B. January et al, Brit. J. Pharmacol. 1998, 123, 701.

β2-adrenoreceptor = β2-adrenoreceptor (Homo sapiens, UniProt P07550); assay: classical filtration binding assay, β2 binding potency
β2-adrenoreceptor, sequence (P07550 whole entry, species assumed): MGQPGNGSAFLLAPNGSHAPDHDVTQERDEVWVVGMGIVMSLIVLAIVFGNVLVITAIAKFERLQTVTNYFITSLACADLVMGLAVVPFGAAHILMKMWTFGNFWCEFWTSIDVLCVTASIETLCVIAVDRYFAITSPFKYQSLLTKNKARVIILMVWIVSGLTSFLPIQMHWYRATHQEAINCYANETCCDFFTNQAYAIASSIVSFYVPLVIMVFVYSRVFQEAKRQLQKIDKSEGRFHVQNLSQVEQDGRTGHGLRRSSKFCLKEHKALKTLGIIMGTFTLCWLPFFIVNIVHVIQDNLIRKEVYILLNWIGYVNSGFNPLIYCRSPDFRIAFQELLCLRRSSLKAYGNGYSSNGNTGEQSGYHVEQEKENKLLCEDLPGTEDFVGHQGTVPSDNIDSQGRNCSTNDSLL
Excerpt: as §1
Many of the compounds have binding selectivities for the β2-adrenoreceptor relative to the β1-adrenoreceptor from 1.5 to 500.

[2] = classical filtration binding assay, read-out: β2 binding potency, Ki

| Structure (SMILES) | Ki (β2-adrenoreceptor; [2]) | also measured |
| --- | --- | --- |
| CC(C)(Cc1ccccc1)NC[C@H](O)c1cc(O)cc2[nH]c(=O)sc12 [Example 1, (R)-7-[2-(1,1-Dimethyl-2-phenyl-ethylamino)-1-hydroxy-ethyl]-5-hydroxy-3H-benzothiazol-2-one] | – | T(50%) time for inhibition of contraction to decay to 50% of its maximum value ([1]; 100 nM concentration): > 672 min |
| CC(NCC(O)c1cc(O)cc2[nH]c(=O)sc12)C1CCCCC1 (stereo not shown) [Example 2] | 0.061 µM | – |
| CCCCOc1ccc(CC(C)(C)NCC(O)c2cc(O)cc3[nH]c(=O)sc23)cc1 (stereo not shown) [Example 4] | – | Ki (β2-adrenoreceptor): 0.027 µM |
| CC(CCc1ccccc1)NCC(O)c1cc(O)cc2[nH]c(=O)sc12 (stereo not shown) [Example 9] | 0.016 µM | – |
| O=c1[nH]c2cc(O)cc(C(O)CNC3CCCC3C3CCCC3)c2s1 (stereo not shown) [Example 14] | 0.056 µM | – |
| O=c1[nH]c2cc(O)cc(C(O)CNC3CCCC3OCc3ccccc3)c2s1 (stereo not shown) [Example 17] | 0.002 µM | – |
| CN(C)c1ccc(CC(C)(C)NC[C@@H](O)c2cc(O)cc3[nH]c(=O)sc23)cc1 [Example 18, (S)-7-{2-[2-(4-Dimethylamino-phenyl)-1,1-dimethyl-ethylamino]-1-hydroxy-ethyl}-5-hydroxy-3H-benzothiazol-2-one] | – | T(50%) time for inhibition of contraction to decay to 50% of its maximum value ([1]; 10 nM concentration): 595 min |
